Where two headings read alike, the source gives them in different places.
What was measured:
[1] = target: T1, Connexin43 plaques in ARPE-19 cells (Homo sapiens, UniProt P17302); assay: Immunocytochemistry and quantification of Cx43 plaques; format: cell-based; conditions: for Connexin43 labelling per cell compared to untreated control (in words): 2- or 6-hour treatment, Peptide5 50-500 μM, LaCl3 and CBX 500 μM; for distribution of Connexin43 plaques: Peptide5 500 μM, FIG. 1A; for total Connexin43 expression reduced by, relative to the control: 500 μM
T1 construct: a cell line with high endogenous expression of connexin43; endogenous in cells; host or cells: ARPE-19
T1 sequence (P17302 2-382 limits assumed): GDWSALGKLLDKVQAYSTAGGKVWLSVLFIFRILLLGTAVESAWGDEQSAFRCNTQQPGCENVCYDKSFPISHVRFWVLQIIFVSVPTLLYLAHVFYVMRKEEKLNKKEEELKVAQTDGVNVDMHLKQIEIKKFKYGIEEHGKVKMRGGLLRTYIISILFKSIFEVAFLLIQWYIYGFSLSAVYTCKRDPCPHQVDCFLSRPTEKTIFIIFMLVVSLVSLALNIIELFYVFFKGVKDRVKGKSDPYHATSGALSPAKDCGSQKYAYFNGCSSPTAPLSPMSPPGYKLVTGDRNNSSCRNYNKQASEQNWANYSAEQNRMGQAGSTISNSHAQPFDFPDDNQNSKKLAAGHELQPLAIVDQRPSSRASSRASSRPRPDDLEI
Description: (§1) ARPE-19 cells were grown until confluent in 8-well glass chamber-slides (BD Falcon). Confluent monolayers of ARPE-19 cells were incubated at a final concentration of 50 to 500 μM Peptide5, 500 μM LaCl3 and 500 μM CBX in culture medium for 2 or 6 hours. Cells were fixed in 4% PFA (ProSciTech) at pH 7.4 for 10 min at room temperature, permeabilized with 0.05% Triton-X100 in PBS, and incubated in 10% normal goat serum to block non-specific labelling. Cells were rinsed three times with PBS containing 0.1 mM CaCl2 between each fixation, permeabilization, and blocking steps. Connexin43 polyclonal rabbit antibody (C6219, Sigma, 1:2000) was applied overnight, followed by a goat anti-rabbit Alexa Fluor® 568 secondary antibody (Invitrogen, 1:200) for 45 minutes. Nuclei were counterstained with DAPI (Invitrogen) at 10,000-fold dilution for 5 mins, and mounted with Citifluor™ mounting medium. Images were visualised and captured using an oil immersion lens (60× magnification, 1.35 numerical aperture) on an Olympus FV1000 upright confocal laser scanning microscope and Olympus FV10-ASW 4.0 software. The Transfluor feature in MetaXpress® Image acquisition and analysis software (Version 5.3.0.1, Molecular Devices) was used to quantify the total area of Connexin43 plaques per image.
as §1

[2] = target: T2, coupled gap junction channels in hCMVEC cells (Homo sapiens, UniProt P17302); format: cell-based
T2 construct: A confluent monolayer of hCMVECs was pre-incubated in Peptide5; endogenous in cells; host or cells: hCMVEC
T2 sequence (P17302 2-382 limits assumed): as above
Description: (§2) The hCMVEC cells were plated in 1 μg/cm^2 collagen I (Gibco) 12-well plate at a density of 0.4×10^6 cells per well, and cultured overnight. A confluent monolayer of hCMVECs was pre-incubated in Peptide5 (5-100 μM) dissolved in culture medium for 2 hours or 24 hours. CBX at a concentration of 100 μM was used as a positive control. Cells were washed three times with phosphate buffered saline (PBS) without Ca^2+ or Mg^2+. The cells were then incubated in 0.05% Lucifer Yellow (LY) (Sigma), a fluorescent dye that is transferred through coupled gap junction channels (el-Fouly et al., 1987, Experimental cell research 168:422-430), +/−Peptide5 dissolved in PBS, and scrape-wounded with a size 10 carbon steel surgical blade (Swann-Morton, England). Following 5-minute incubation at 37° C. in 95% O2 and 5% CO2 without light, the 0.05% LY solution was removed. Cells were rinsed four times with PBS with Ca^2+ or Mg^2+, and then fixed in 4% paraformaldehyde (PFA) in PBS at pH 7.4 for 10 minutes at room temperature. Cells were then washed 3 times in PBS to remove PFA before fluorescent imaging. Fluorescent images were visualised using a Nikon TE2000E inverted fluorescent microscope (10× magnification, 0.3 numerical aperture), and captured using a Digital Sight CCD camera and Eclipse Net software (Nikon). Three images within each well from three independent experiments were taken for analysis and the total number of cells showing dye uptake from those that had been loaded were counted manually by masked observers.
as §2, with “1987),” for “1987, Experimental cell research 168:422-430),”

Compound | Connexin43 labelling per cell compared to untreated control (in words) [1] | distribution of Connexin43 plaques ([1]; 2-hour exposure) | distribution of Connexin43 plaques ([1]; 6-hour exposure) | LY dye transfer compared to untreated control (in words) [2] | LY dye transfer, % of the untreated control [2] [%] | LY positive cells compared to the control [2] [%] | total Connexin43 expression reduced by, relative to the control ([1]; 2-hour exposure) [%] | total Connexin43 expression reduced by, relative to the control ([1]; after 6 hours) [%] | LY positive cells compared to the control ([2]; hCMVEC, 100 μM, 2-hour exposure, FIG. 2A) [%] | LY dye transfer, % of the untreated control ([2]; hCMVEC, 100 μM, 2-hour exposure, FIG. 5, untreated control 100±4.5%) [%] | LY dye transfer compared to native Peptide5 (in words) ([2]; hCMVEC, 100 μM, FIG. 2) | LY dye transfer compared to untreated control (in words) ([2]; hCMVEC, 100 μM, FIG. 2)
VDCFLSRPTEKT [Peptide5] | no significant difference | patterns of cytoplasmic streaming | fragmented | significantly attenuated LY dye transfer | 79.4±3.9 | 56.2±2.6 |  |  |  |  |  | 
CC1(C)[C@@H](OC(=O)CCC(=O)O)CC[C@]2(C)[C@H]3C(=O)C=C4[C@@H]5C[C@@](C)(C(=O)O)CC[C@]5(C)CC[C@@]4(C)[C@]3(C)CC[C@@H]12 [CBX, Carbenoxolone] | significant reduction |  |  |  |  |  | 30.0±8.2 | 53.4±8.1 | 16.3±1.1 | 15.3±1.8 | significantly more than the native Peptide5 | significantly reduced

Source: patent publication US20200129582A1, “NOVEL PEPTIDES AND PEPTIDOMIMETICS” (UNIVERSITY OF AUCKLAND, priority 2016, published 2020)
